Key:
C2C12 murine myoblasts = assay: In vitro myogenesis, THP1/C2C12 transwell co-culture; type: cell-based
Protocol: C2C12 murine myoblasts were obtained from ATCC and grown in complete media (DMEM, 10% FBS, 1% penicillin/streptomycin) at 37° C./5% CO2 according to the ATCC recommendations. Myoblasts were seeded at a density of 5,000 cells/cm^2 in 24 well plates and allowed proliferate to 90% confluence. Cells were then washed in 1×PBS and incubated in differentiation media (DMEM, 2% horse Serum, 1% penicillin/streptomycin) for 24 hours. Cells were washed in 1×PBS and placed in basal media (DMEM, 1% penicillin/streptomycin). A transwell insert (Corning) containing 100,000 differentiated THP1 cells (as described in section 2.9) in 200 μL of complete THP1 cell media was placed in each well. UBM hydrogel (0.5 mg/mL, final concentration) was then added to the THP1 transwell insert only. […] A standardized image capture system and quantitative analysis of in vitro myogenesis was performed as previously described (Goh […], Corbett J T, Pierre […], Pizza F X. Intercellular adhesion molecule-1 expression by skeletal muscle Cells Augments myogenesis. Exp Cell Res 2014). Briefly, custom macro functions (Image […]; Media Cybernetics Inc.) were used to objectively quantify several important myogenesis parameters (e.g., the number of nuclei, myotubes, and nuclei within a myotube). […] The fusion index was calculated by expressing the number of nuclei within myotubes as a percentage of total nuclei.

Sprague Dawley rats = assay: Rat skeletal muscle injury model: collagen deposition and myogenesis; type: in vivo; settings: UBM implant
Protocol: An established rodent skeletal muscle injury model was used to evaluate the effect of the COX1/2 inhibitor, Aspirin, on the ECM scaffold mediated constructive remodeling response. Briefly, three days prior to the surgical procedure, animals were randomly assigned to either the Aspirin treated (3 mg/mL Aspirin in drinking water) or control (vehicle) group. Bilateral 1.5 cm×1.5 cm partial thickness defects were created in the abdominal musculature. A size-matched pre-cast UBM hydrogel and an overlying 2×2 cm single layer sheet of UBM was then placed in the muscle defect area. The remodeling response was evaluated following 3, 7, 14, and 35 days by quantitative histomorphologic metrics (Wolf M T, Carruthers […], Crapo P M, Huber A, Burnsed O A, Londono R, Johnson […] and others. Polypropylene surgical mesh coated with extracellular matrix mitigates the host foreign body response. J Biomed Mater Res A 2013 and Wolf […], Brennan-Pierce E P, Johnson S A, Carruthers […] hydrogel derived from decellularized dermal extracellular matrix. Biomaterials 2012;33(29):7028-38), including characterization of macrophage phenotype and neo tissue deposition. Thirty-two female Sprague Dawley rats (350-400 g at implantation) were purchased from Harlan Laboratories. […] Salicylates in whole blood were determined using the Salicylates Detection Kit from Neogen according to the manufacturer's instructions. […] Fast and Slow Myosin Heavy Chain: Myosin heavy chain positive cells in the defect area were determined by immunolabeling for fast and slow myosin heavy chain as previously described (Turner N J, Yates A J, Jr., Weber […], Stolz D B, Gilbert […]. Xenogeneic extracellular matrix as an inductive scaffold for regeneration of a functioning musculotendinous junction. Tissue Eng Part A 2010;16(11):3309-17; Valentin J E, Turner N J, Gilbert […]. Functional skeletal muscle formation with a biologic scaffold. Biomaterials 2010;31(29):7475-84; and Wolf […]. Biologic scaffold composed of skeletal muscle extracellular matrix. […]

CC(=O)Oc1ccccc1C(=O)O [Aspirin] was tested, and the myogenesis metrics (C2C12 murine myoblasts; Aspirin 200 μM co-administered with UBM 0.5 mg/mL, 48 hours) was “reduced these myogenesis metrics down to control levels”, the “reduction in fusion index” value (C2C12 murine myoblasts; Aspirin with UBM, THP1/C2C12 co culture) was 92% and the “reduction in collagen deposition” value (Sprague Dawley rats; 35 day time point, 3 mg/mL Aspirin in drinking water) was 24%. The “reduction in myogenesis (myogenic index) compared to non-treated controls” value (Sprague Dawley rats; 35 days post implantation) was 4 fold and the “in vivo reduction in myogenesis” value (Sprague Dawley rats) was 79%.
